Biological target: ATP-dependent translocase ABCB1 (Homo sapiens, UniProt P08183)
Assay: TP_TRANSPORTER: increase in Rhodamine 123 intracellular accumulation (R123: 10 uM, Tamolarizine: 10 uM) in K562/DX cellsR cells, FACScan
Assay type: functional, cell-based
Settings: k562/dxr

Sequence of ATP-dependent translocase ABCB1 (P08183 whole entry): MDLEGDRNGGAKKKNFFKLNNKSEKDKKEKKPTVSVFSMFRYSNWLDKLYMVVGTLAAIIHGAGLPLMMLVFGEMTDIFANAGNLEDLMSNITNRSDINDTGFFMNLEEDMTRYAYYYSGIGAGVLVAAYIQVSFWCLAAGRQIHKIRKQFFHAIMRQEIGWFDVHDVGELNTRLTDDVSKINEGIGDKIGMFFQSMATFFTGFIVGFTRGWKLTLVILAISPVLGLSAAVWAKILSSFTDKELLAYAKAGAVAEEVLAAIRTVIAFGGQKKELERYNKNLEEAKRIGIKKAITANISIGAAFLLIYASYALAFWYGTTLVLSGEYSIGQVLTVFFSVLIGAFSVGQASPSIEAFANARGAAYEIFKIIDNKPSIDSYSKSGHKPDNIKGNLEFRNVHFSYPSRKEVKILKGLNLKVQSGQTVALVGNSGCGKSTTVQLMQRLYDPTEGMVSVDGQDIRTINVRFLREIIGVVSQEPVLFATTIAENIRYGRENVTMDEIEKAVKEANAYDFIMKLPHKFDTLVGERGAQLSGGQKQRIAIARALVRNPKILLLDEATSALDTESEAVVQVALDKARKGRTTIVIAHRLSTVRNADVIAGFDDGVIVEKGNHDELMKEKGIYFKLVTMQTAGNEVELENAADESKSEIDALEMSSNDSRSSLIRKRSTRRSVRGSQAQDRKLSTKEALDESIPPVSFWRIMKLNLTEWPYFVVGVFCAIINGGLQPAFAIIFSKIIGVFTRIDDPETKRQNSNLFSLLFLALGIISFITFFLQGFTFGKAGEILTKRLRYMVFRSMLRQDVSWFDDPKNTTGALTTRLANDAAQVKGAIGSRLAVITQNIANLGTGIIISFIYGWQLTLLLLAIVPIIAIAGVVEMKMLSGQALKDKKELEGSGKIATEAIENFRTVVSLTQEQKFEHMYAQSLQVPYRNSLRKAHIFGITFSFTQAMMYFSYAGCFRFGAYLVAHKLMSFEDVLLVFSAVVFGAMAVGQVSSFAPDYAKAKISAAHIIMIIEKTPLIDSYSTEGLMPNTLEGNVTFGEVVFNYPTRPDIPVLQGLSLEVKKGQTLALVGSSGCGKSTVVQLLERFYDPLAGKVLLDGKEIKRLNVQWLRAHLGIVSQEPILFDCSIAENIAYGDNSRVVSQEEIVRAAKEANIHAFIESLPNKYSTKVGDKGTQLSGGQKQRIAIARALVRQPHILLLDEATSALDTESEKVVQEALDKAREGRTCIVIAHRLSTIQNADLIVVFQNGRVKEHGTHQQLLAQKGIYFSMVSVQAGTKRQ

COc1ccc(C(O)CN2CCN(C(c3ccccc3)c3ccccc3)CC2)cc1OC (stereo unspecified) [TAMOLARIZINE]
Activity: inhibitor [+]

Reference: ChEMBL document CHEMBL2074184, “Reversal of multidrug resistance in human leukemia K562 by tamolarizine, a novel calcium antagonist” (Jpn J Pharmacol, 2000)
